Source: ChEMBL document CHEMBL4483862, “Open-source discovery of chemical leads for next-generation chemoprotective antimalarials” (2018)

System: Plasmodium berghei
Assay: Luciferase/luciferin-expressing antifolate-resistant parasites were used to infect a culture of HepG2 cells that were pre-incubated with compounds. Infected hepatocytes emit light due to the luciferase reaction. Assay results are presented as the percent inhibition of light emission compared to control. […]
Type: functional
Conditions: sporozoite; for IC50: read-out: LUCIFERASE INFECTION ASSAY - IC50; for IC90: read-out: LUCIFERASE INFECTION ASSAY - IC90

| Structure (SMILES) | IC50 [µM] | IC90 [µM] |
| --- | --- | --- |
| CC1CCN(CC(=O)Nc2cccc(C(=O)Nc3cccc(C(F)(F)F)c3)c2)CC1 | > 10 | > 10 |
| CCN(C(=O)CSc1nc2cc(C(=O)O)ccc2c(=O)n1Cc1ccccc1)c1ccccc1 | > 10 | > 10 |
| CCCn1c(O)nnc1SCC(=O)NC(C)C12CC3CC(CC(C3)C1)C2 (centres undefined) | > 10 | > 10 |
| COc1ccc(NC(=O)c2ccc(NC(=O)c3nc4nccc(C)n4n3)cc2)cc1 | > 10 | > 10 |
| O=C(CN1C(=O)C(=O)N(C2CCCC2)C1=O)Nc1cc(Cl)ccc1[N+](=O)[O-] | > 10 | > 10 |
| CC(C)(C)NC(=O)NC(=O)COC(=O)CNS(=O)(=O)c1ccc(Br)cc1Cl | > 10 | > 10 |
| CCOc1cc(N2CCOCC2)c(OCC)cc1NC(=O)COc1ccc(-c2nnco2)cc1 | > 10 | > 10 |
| CC(OC(=O)C1CC1)C(=O)Nc1ccnn1C(C)C (centres undefined) | > 10 | > 10 |
| COc1cc(/C=N/NC(=O)c2cc3c(s2)CCC(C)C3)ccc1OC(=O)c1ccco1 (centres undefined) | > 10 | > 10 |
| Cc1cccc(C)c1N(C(=O)CCNC(=O)c1ccccc1Cl)c1nc2ccccc2s1 | > 10 | > 10 |
| C/C(N)=C(/C#N)C(=O)COC(=O)CCN1C(=O)C2CC=CCC2C1=O (centres undefined) | > 10 | > 10 |
| N#Cc1cc(C(=O)c2cc(F)ccc2OC(=O)C2(c3ccccc3)CC2)cn(Cc2ccccc2)c1=O | > 10 | > 10 |
| CCC(CC)c1nnc(NC(=O)/C=C/c2cn(-c3ccccc3)nc2-c2ccc(F)cc2)s1 | > 10 | > 10 |
| Cc1cccc(/C=C2\SC(=O)N(CCC(=O)Nc3ccc(-c4nnc5n4CCCCC5)cc3)C2=O)c1 | > 10 | > 10 |
| O=C(CN1c2cccc3cccc(c23)S1(=O)=O)N1CCN(C(=O)c2ccco2)CC1 | > 10 | > 10 |
| CN(CC(=O)Nc1ccc(F)c(F)c1F)C(C(=O)Nc1ccc(Cl)c(C(F)(F)F)c1)c1ccccc1 (centres undefined) | 6.74 | > 10 |
| CC(=O)Nc1sc2c(c1C(=O)OCC(=O)Nc1cc(S(=O)(=O)N3CCOCC3)ccc1Cl)CCCC2 | > 10 | > 10 |
| Cc1cc(C(C)(C)C)ccc1OC(=O)c1sc2nc3n(c(=O)c2c1C)CCCCC3 | > 10 | > 10 |
| COCC(C)n1c(C)cc(C(=O)COC(=O)[C@@H]2CCCN2C(=O)c2cccs2)c1C (some centres undefined) | > 10 | > 10 |

| Structure (SMILES) | IC50 [µM] | IC90 [µM] |
| --- | --- | --- |
| CC(C)N(C(=O)CN1CCN(c2ccccc2Cl)CC1)c1ccc(Nc2ccccc2)cc1 | 4.84 | > 10 |
| CCCCC(=O)OCC(=O)Nc1nc(-c2ccc(C)cc2O)cs1 | > 10 | > 10 |
| Cc1ccc(O)c(-c2cc(-c3ccccc3)c3ccccc3n2)c1 | > 10 | > 10 |
| O=C(Nc1sc2c(c1-c1nc3ccccc3[nH]1)CCCC2)c1nc(-c2ccccc2)n(-c2ccccc2)n1 | 9.63 | > 10 |
| NC(=O)c1c(NC(=O)COC(=O)C2=NN(c3ccccc3)C(=O)CC2)sc2c1CCC2 | > 10 | > 10 |
| O=C(COC(=O)c1cc(-c2ccc(Cl)cc2)nc2ccccc12)Nc1cc(C(F)(F)F)ccc1-n1cncn1 | > 10 | > 10 |
| COc1cccc(N2C(=O)CC(n3nc(Nc4cccc(C)c4)sc3=S)C2=O)c1 (centres undefined) | > 10 | > 10 |
| FC(F)Sc1ccc(NC(=S)NCC(c2ccco2)N2CCCCC2)cc1 (centres undefined) | 6.18 | > 10 |
| O=C(CN(Cc1ccco1)C(=O)c1ccc(-c2cccc(C(F)(F)F)c2)o1)Nc1ccccc1Br | > 10 | > 10 |
| Nn1c(SC2CCCCC2=O)nnc1C1CCCCC1 (centres undefined) | > 10 | > 10 |
| O=C(Nc1nc(-c2ccc(F)cc2)cs1)c1cccc(S(=O)(=O)N2CCc3ccccc32)c1 | > 10 | > 10 |
| O=C(CN1CCN(C(=O)/C=C/c2ccccc2[N+](=O)[O-])CC1)Nc1ccc(Cl)c(C(F)(F)F)c1 | > 10 | > 10 |
| CN(C)CCNS(=O)(=O)c1ccc(Cl)c([N+](=O)[O-])c1 | > 10 | > 10 |
| Cc1ccc(NC(=O)COc2ccc3c(=O)c(-c4ccccc4)c(C)oc3c2)cc1[N+](=O)[O-] | > 10 | > 10 |
| CCOC(=O)c1ccc2c(c1)nc(-c1ccc(Sc3ccc(C)cc3)c([N+](=O)[O-])c1)n2CC | > 10 | > 10 |
| O=[N+]([O-])c1c[nH]c(-c2csc(-n3nccc3C(F)(F)F)n2)c1 | 1.82 | 4.09 |
| O=C(Cc1ccsc1)NNC(=O)c1cccc(S(=O)(=O)Nc2cccc(C(F)(F)F)c2)c1 | > 10 | > 10 |
| Cc1ccc(S(=O)(=O)N2CCCCC2)cc1NC(=O)C[N+]12CCN(CC1)CC2 | > 10 | > 10 |
| O=C1CSC(=O)N1CCN=Cc1c(O)n(-c2ccc(Cl)cn2)c(=O)c2ccccc12 | > 10 | > 10 |

| Structure (SMILES) | IC50 [µM] | IC90 [µM] |
| --- | --- | --- |
| O=C(CN1C(=O)NC2(CCCCC2)C1=O)NC1CCS(=O)(=O)C1 (centres undefined) | > 10 | > 10 |
| COc1ccc(Cl)cc1NS(=O)(=O)c1cccc(C(=O)OC(C)C(=O)c2cc(C)n(-c3ccccc3)c2C)c1 (centres undefined) | > 10 | > 10 |
| COc1ccc(CNC(=O)/C=C/c2csc(N(C(C)=O)c3cccc(C(F)(F)F)c3)n2)cc1 | > 10 | > 10 |
| CCOC(=O)c1c(C)oc(NC(=O)CSc2nnc(-c3ccccc3)n2-c2ccc(C)c(C)c2)c1C#N | > 10 | > 10 |
| COc1ccc(C)cc1N(CC(=O)Nc1ccccc1C(=O)NCCc1ccccc1)S(=O)(=O)c1ccccc1 | > 10 | > 10 |
| Cc1ccc(CN(C)c2ccc([N+](=O)[O-])cc2Cl)o1 | > 10 | > 10 |
| O=C(CCCSc1nc2ccccc2s1)Nc1ccc(S(=O)(=O)NC2=NCCCCC2)cc1 | > 10 | > 10 |
| CCN1CCCC1CNCC(=O)Nc1cc(Cl)ccc1C#N (centres undefined) | > 10 | > 10 |
| CN(C)S(=O)(=O)c1ccc2oc3nnc(SCc4csc(-c5ccccc5)n4)n3c2c1 | > 10 | > 10 |
| CCC1CCc2sc(C(=O)NN)cc2C1 (centres undefined) | > 10 | > 10 |
| O=[N+]([O-])c1ccc2nc3c(c(-c4ccccc4)c2c1)CSc1ccccc1-3 | > 10 | > 10 |
| O=C(OCC(=O)N1CCN(C(=O)c2ccco2)CC1)c1cccc(NS(=O)(=O)c2ccc(F)c(F)c2)c1 | > 10 | > 10 |
| O=[N+]([O-])c1cccc(-c2csc(-n3nccc3C(F)(F)F)n2)c1 | > 10 | > 10 |
| COc1cccc(-n2c(=O)c3ccccc3n3c(SCc4cc(=O)n5ccsc5n4)nnc23)c1 | > 10 | > 10 |
| Cc1nc2cc(Nc3nc(CN4CCOCC4)nc4scc(-c5ccccc5)c34)ccc2n1-c1ccccc1 | > 10 | > 10 |
| COc1ccccc1N(CCC#N)C(=O)COC(=O)/C=C/c1ccc(OC(F)F)cc1 | > 10 | > 10 |
| COc1ccc(C(=O)Nc2cccc(/C=C/C(=O)c3ccc(C4CCCCC4)cc3)c2)cc1 | 7.51 | 9.2 |
| COc1ccc2cc(-c3nc4ccc(Cl)cc4c(-c4ccccc4F)c3C)ccc2c1 | 6.1 | > 10 |
| Cn1c2ccccc2c2ccc(CC(=O)N/N=C/c3ccccc3)cc21 | > 10 | > 10 |
